Results on seven compounds are retold here after ChEMBL document CHEMBL2177012, “Inhibitor of ovarian cancer cells growth by virtual screening: a new thiazole derivative targeting human thymidylate synthase” (J Med Chem, 2012).

Test [1] has as its system 2008. In words: Growth inhibition of human 2008 cells by crystal violet assay. It is filed as functional, cell-based.
Test [2] in a line: Growth inhibition of cDDP-resistant human C13 cells by crystal violet assay. It is filed as functional, cell-based.
Test [3] has as its target T1, Thymidylate synthase (Homo sapiens, UniProt P04818). In words: Inhibition of human thymidylate synthase expressed in Escherichia coli at 100 uM incubated for 1 hr by spectrophotometry.
Target sequence in this assay (P04818 2-313 limits assumed): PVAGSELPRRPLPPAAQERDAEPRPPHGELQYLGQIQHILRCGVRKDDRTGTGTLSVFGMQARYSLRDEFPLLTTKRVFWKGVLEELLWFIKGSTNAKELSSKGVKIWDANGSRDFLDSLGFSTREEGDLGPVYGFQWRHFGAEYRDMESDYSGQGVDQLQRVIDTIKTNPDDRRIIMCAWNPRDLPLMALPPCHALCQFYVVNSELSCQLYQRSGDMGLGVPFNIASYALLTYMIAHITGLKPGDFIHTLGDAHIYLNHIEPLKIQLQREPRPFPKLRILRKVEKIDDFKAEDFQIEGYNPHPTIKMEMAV
Test [4] relates to Vero. In words: Growth inhibition of african green monkey Vero cells by crystal violet assay. Format: cell-based. The note with it: Chlorocebus sabaeus.
The target of test [5] is T1, Thymidylate synthase. In words: Inhibition of human thymidylate synthase expressed in Escherichia coli incubated for 1 hr by spectrophotometry.
Target sequence in this assay (P04818 whole entry): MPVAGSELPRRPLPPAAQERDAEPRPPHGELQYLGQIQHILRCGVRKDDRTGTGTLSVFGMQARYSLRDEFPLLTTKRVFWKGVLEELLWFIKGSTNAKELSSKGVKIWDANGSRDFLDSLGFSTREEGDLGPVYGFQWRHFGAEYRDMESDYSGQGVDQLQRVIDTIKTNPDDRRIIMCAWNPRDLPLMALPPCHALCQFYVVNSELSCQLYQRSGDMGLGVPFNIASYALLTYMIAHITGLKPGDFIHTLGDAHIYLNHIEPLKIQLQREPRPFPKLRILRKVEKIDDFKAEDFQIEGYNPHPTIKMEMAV
A short description of test [6]: Growth inhibition of cDDP-resistant human A2780/CP70 cells by crystal violet assay. Format: functional, cell-based.
Test [7] has as its system A2780. In words: Growth inhibition of human A2780 cells by crystal violet assay. It is filed as functional, cell-based.
Test [8] addresses T1, Thymidylate synthase. In words: Inhibition of human thymidylate synthase expressed in Escherichia coli at 25 uM incubated for 1 hr by spectrophotometry.
Target sequence in this assay (P04818 2-313 limits assumed): as the sequence (P04818 2-313 limits assumed) above
Test [9] deals with T1, Thymidylate synthase. The test is described as follows: Inhibition of human thymidylate synthase expressed in Escherichia coli at 50 uM incubated for 1 hr by spectrophotometry.
Target sequence in this assay (P04818 2-313 limits assumed): as above
The subject of test [10] is 2008. The test is described as follows: Increase in ROS production in human 2008 cells at 20 uM incubated for 72 hrs by CM-H2DCFDA dye based fluorometry. It is filed as functional.
The test system of test [11] is C13. In words: Increase in ROS production in cDDP-resistant human C13 cells at 40 uM incubated for 72 hrs by CM-H2DCFDA dye based fluorometry. Format: functional, cell-based.
The test system of test [12] is 2008. In words: Effect on thymidylate synthase protein expression in human 2008 cells at 20 to 40 uM incubated for 72 hrs by Western blotting. It is filed as functional, cell-based.
Test [13] concerns 2008. The test is described as follows: Inhibition of DHFR protein expression in human 2008 cells at 40 uM incubated for 72 hrs by Western blotting. Format: functional. The following applies: Homo sapiens, 2008, 72 h.
Test [14] deals with C13. In words: Increase in ROS production in cDDP-resistant human C13 cells at 20 uM incubated for 72 hrs by CM-H2DCFDA dye based fluorometry. It is filed as functional, cell-based.
Test [15] relates to 2008. The test is described as follows: Increase in ROS production in human 2008 cells at 40 uM incubated for 72 hrs by CM-H2DCFDA dye based fluorometry. Format: functional.
The subject of test [16] is C13. The test is described as follows: Inhibition of DHFR protein expression in cDDP-resistant human C13 cells at 40 uM incubated for 72 hrs by Western blotting. It is filed as functional, cell-based.
Test [17] relates to C13. In words: Effect on thymidylate synthase protein expression in cDDP-resistant human C13 cells at 20 to 40 uM incubated for 72 hrs by Western blotting. It is filed as functional, cell-based.
For test [18], the system named is C13. In words: Inhibition of DHFR protein expression in cDDP-resistant human C13 cells at 20 uM incubated for 72 hrs by Western blotting. Format: functional, cell-based. In general terms: In western blotting, separated proteins are transferred to a membrane and probed.
In test [19] the test system is 2008. In words: Inhibition of DHFR protein expression in human 2008 cells at 20 uM incubated for 72 hrs by Western blotting. It is filed as functional. The following applies: Homo sapiens, 2008, 72 h.
In test [20] the target is T1, Thymidylate synthase. In words: Mixed inhibition of human thymidylate synthase expressed in Escherichia coli incubated for 1 hr using varying mTHF and dUMP levels by spectrophotometry based Lineweaver-Burk method.
Target sequence in this assay (P04818 2-313 limits assumed): as above
Test [21] has as its target T1, Thymidylate synthase. In words: Inhibition of human thymidylate synthase expressed in Escherichia coli incubated for 1 hr using varying dUMP levels by spectrophotometry based Lineweaver-Burk method.
Target sequence in this assay (P04818 whole entry): as the sequence (P04818 whole entry) above
For test [22], the target named is T1, Thymidylate synthase. In words: Inhibition of human thymidylate synthase expressed in Escherichia coli incubated for 1 hr assessed as reduction in mTHF Vmax value by spectrophotometry based Lineweaver-Burk method relative to untreated control.
Target sequence in this assay (P04818 2-313 limits assumed): as the sequence (P04818 2-313 limits assumed) above

Broadly, the IC50 is the concentration needed to halve the response being measured. In general, inhibition refers to the percentage by which the read-out fell short of the control. For orientation: Ki means a dissociation constant, usually derived from enzyme kinetics or from competition with a known ligand.

Activity calls are given as the source filed them. No cut-off for these calls is given here.

`CCN(CC)CCOC(=O)c1ccc(NS(=O)(=O)c2ccc(C(C)(C)C)cc2)cc1`: the IC50 in test [1] and in [2] was > 60 µM in each case. In addition, the inhibition in test [3] was 15%.

`CCCCCn1c(=O)c(C(=O)Nc2ccc(N)cc2)c(O)c2ccccc21`: the half-maximal inhibitory concentration (IC50) was found to be 10.2 µM in [4]; 71 µM in [5]; 8.8 µM in test [1]; 9.2 µM in [2]; 12.3 µM in test [6]; 4.9 µM in test [7]. Also, the inhibition in test [8] was found to be 41%.

As for `O=c1[nH]cc(F)c(=O)[nH]1` [FLUOROURACIL], the IC50 in [4] stood at 4.5 µM; in test [1], 4.2 µM; in test [2], 8.5 µM; in test [6], 12.3 µM; in [7], 5.1 µM.

With `COc1ccc(C)cc1NC(=O)C(=O)N/N=C/c1ccc(OCC(N)=O)cc1`, the values for the IC50 in test [5], in test [1] and in test [2] were 112 µM, > 60 µM and > 60 µM, respectively. In test [9], the inhibition came out at 35%.

With `O=C(NC(=O)c1cn(CCNCCO)c(=O)[nH]c1=O)OCc1ccccc1`, the “fold change (FC)” value in [10] and in [15] was 1.5 throughout. Moreover, the half-inhibitory concentration (IC50) in test [4] was > 80 µM; in test [5], 619 µM; in [1] it was 24.1 µM; in test [2], 56.8 µM; in test [6], 16.5 µM; in test [7], 6.6 µM. Also, the outcome in test [11], in [12], in test [14] and in test [17] was inactive. This compound showed an inhibition at 40 µM in [13] of 60%. Moreover, the inhibition entry in test [16] and in [18] was “inactive” in each case. The inhibition in [3] amounted to 36%. In test [19], the inhibition at 20 µM turned out to be 40%.

Turning to `O=C(CC1S/C(=N\N=C\c2ccccc2O)N=C1O)Nc1cccc(C(F)(F)F)c1` (configuration not stated), the concentration for half-maximal inhibition (IC50) worked out at 30.3 µM in test [4]; 90 µM in test [5]; 21.1 µM in test [1]; 28.3 µM in test [2]; 36.4 µM in test [6]; 19.4 µM in test [7]. In addition, in test [20], the inhibition entry was “Active”. Besides, the Ki in [21] is 2.5 µM. For the same compound, the inhibition in test [22] was determined as 60%; in test [8] it was 33%.

With `Cc1ccc(C(=O)C2=C(O)C(=O)N(CCN(C)C)C2c2ccc(OCC(N)=O)cc2)o1` (configuration not stated), the IC50 was > 80 µM in [4]; 37.4 µM in [1]; > 80 µM in [2]; 39.5 µM in test [6]; 16.4 µM in [7]. The compound further yielded an inhibition in test [3] of 16%.
